Measured values published in ChEMBL document CHEMBL5029164, “JNJ-67569762, A 2-Aminotetrahydropyridine-Based Selective BACE1 Inhibitor Targeting the S3 Pocket: From Discovery to Clinical Candidate” (J Med Chem, 2021).
Calls of active or inactive are those of the source. No cut-off for these calls is given here.

Columns and labels:
Homo sapiens = species: Homo sapiens; assay: Selectivity index, ratio of IC50 for inhibition of BACE2 (unknown origin) to IC50 for inhibition of BACE1 (1 to 454 residues) (unknown origin)
[1] = Glutathione reactivity in human liver microsomes; assay type: ADME
[2] = Metabolic stability in human liver microsomes assessed as intrinsic clearance; assay type: ADME, Microsome; conditions: read-out: CLH
[3] = Cyanide reactivity in human liver microsomes; assay type: ADME
Beta-secretase 1 [4] = target: T1, Beta-secretase 1 (Homo sapiens, UniProt P56817); assay: Inhibition of BACE1 (1 to 454 residues) (unknown origin) using APP harboring Swedish Lys-Met/Asn-Leu mutant-derived peptide as substrate by FRET assay
Mus musculus = assay: In vivo inhibition of BACE1 in C57BL/6J mouse assessed as reduction in plasma SEZ6L level at 3.5 to 52 mg/kg,/day administered via diet for 21 days; assay type: functional, organism-based; conditions: dose 3.5-52 mg/kg, time 21.0 day
Beta-secretase 2 = target: T2, Beta-secretase 2 (Homo sapiens, UniProt Q9Y5Z0); assay: Inhibition of BACE2 (unknown origin) using APP harboring Swedish Lys-Met/Asn-Leu mutant-derived peptide as substrate incubated for 2 hrs by FRET assay
T2 sequence (Q9Y5Z0 whole entry): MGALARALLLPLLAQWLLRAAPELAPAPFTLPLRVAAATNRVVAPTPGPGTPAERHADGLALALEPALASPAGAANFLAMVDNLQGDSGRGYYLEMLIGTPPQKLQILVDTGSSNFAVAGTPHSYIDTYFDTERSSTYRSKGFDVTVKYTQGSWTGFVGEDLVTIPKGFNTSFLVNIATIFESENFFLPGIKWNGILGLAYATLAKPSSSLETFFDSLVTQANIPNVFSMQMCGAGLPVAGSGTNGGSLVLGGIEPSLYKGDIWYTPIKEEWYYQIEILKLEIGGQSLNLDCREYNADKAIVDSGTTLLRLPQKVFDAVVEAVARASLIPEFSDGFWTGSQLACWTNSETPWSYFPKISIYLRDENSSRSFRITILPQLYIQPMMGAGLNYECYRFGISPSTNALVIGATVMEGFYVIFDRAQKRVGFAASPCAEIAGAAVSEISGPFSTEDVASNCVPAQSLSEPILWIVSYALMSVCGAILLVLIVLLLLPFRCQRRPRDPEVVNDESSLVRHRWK

Beta-secretase 1 [5] = target: T1, Beta-secretase 1; assay: Inhibition of BACE1 in human […] cells expressing wild type APP695 assessed as reduction in amyloid beta 42 secretion incubated for 18 hrs by sandwich ELISA; assay type: cell-based, SKNBE2

T1 sequence (P56817 whole entry, the tested form may be a part): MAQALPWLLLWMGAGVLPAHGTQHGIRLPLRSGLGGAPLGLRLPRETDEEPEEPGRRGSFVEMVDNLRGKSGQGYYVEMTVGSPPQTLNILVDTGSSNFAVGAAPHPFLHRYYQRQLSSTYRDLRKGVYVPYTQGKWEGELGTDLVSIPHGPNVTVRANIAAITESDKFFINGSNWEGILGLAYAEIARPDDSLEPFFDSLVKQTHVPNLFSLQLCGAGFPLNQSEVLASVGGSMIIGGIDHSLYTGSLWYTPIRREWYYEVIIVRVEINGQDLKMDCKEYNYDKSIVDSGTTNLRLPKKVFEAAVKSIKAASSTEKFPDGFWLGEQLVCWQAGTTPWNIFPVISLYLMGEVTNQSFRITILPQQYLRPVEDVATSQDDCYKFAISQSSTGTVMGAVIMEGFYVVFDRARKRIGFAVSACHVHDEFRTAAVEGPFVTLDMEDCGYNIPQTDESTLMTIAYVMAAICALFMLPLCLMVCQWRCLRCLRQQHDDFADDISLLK

| SMILES | Ratio IC50 (Homo sapiens) | Activity [1] | microsomal CLint [2] [µL/min/mg] | Activity [3] | IC50 (Beta-secretase 1 [4]) [nM] | inhibition (Mus musculus) | IC50 (Beta-secretase 2) [nM] | IC50 (Beta-secretase 1 [5]) [nM] | Ratio IC50 (Homo sapiens; tested as the 2H-labelled form) |
| --- | --- | --- | --- | --- | --- | --- | --- | --- | --- |
| C[C@@]1(S(C)(=O)=O)CC[C@@](CF)(c2cc(NC(=O)c3cc4c(cn3)OC(F)(F)CO4)ccc2F)N=C1N | 48 | Not Active | < 7.7 | Active | 1.4 |  |  |  |  |
| C[C@@]1(c2cc(NC(=O)c3ccc(C#N)cn3)ccc2F)C[C@@H](C(F)(F)F)OC(N)=N1 |  |  |  |  |  | Active |  |  |  |
| CCc1cc([C@]2(c3ccc(F)c(-c4cccnc4C(F)F)c3)N=C(N)N(C)C2=O)cc(CC)n1 |  |  |  |  | 10 |  | 6700 |  |  |
| CC(C)S(=O)(=O)[C@]1(C)CC[C@@](CF)(c2cc(NC(=O)c3cc4c(cn3)OC(F)(F)O4)ccc2F)N=C1N | 46 |  | < 7.7 |  | 10 |  | 468 | 6.8 |  |
| [2H]C1([2H])Oc2cnc(C(=O)Nc3ccc(F)c([C@]4(CF)CC[C@@](C)(S(C)(=O)=O)C(N)=N4)c3)cc2OC1([2H])[2H] |  | Not Active | 7.9 | Active |  |  |  |  |  |
| C[C@@]1(S(C)(=O)=O)CC[C@@](CF)(c2cc(NC(=O)c3ccc(F)cn3)ccc2F)N=C1N |  |  | < 7.7 |  |  |  | 3.1 | 3.3 |  |
| COc1cc(C(=O)Nc2ccc(F)c([C@]3(CF)CC[C@@](C)(S(C)(=O)=O)C(N)=N3)c2)ncn1 | 19 |  | < 7.7 |  | 9.5 |  | 189 | 15 |  |
| C[C@@]1(S(C)(=O)=O)CC[C@@](CF)(c2cc(NC(=O)c3cc4c(cn3)OCCCO4)ccc2F)N=C1N | 41 |  | 16.7 |  | 28 |  | 1150 | 76 |  |
| C[C@@]1(S(C)(=O)=O)CC[C@@](CF)(c2cc(NC(=O)c3cc4c(cn3)OC(F)(F)O4)ccc2F)N=C1N | 38 | Not Active | < 7.7 | Active |  |  |  |  |  |
| C[C@@]1(S(C)(=O)=O)CC[C@@](CF)(c2cc(NC(=O)c3cc4c(cn3)OCCO4)ccc2F)N=C1N | 145 | Not Active | 11.3 | Active | 2.3 |  | 340 | 3 | 102 |
| C[C@@]1(S(C)(=O)=O)CC[C@@](CF)(c2cc(NC(=O)c3cc4c(cn3)OCO4)ccc2F)N=C1N |  |  | 36.4 |  | 2.3 |  | 47 | 11 |  |
| C[C@@]1(S(C)(=O)=O)CC[C@@](CF)(c2cc(NC(=O)c3cnc(OCF)cn3)ccc2F)N=C1N |  |  |  |  | 2 |  | 16 | 2.3 |  |
